# Data: ChEMBL document CHEMBL1201862, “PubChem BioAssay data set” (2004)
#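 Where inhibition never reached the appropriate level, the endpoint shown equals the highest concentration tested. Otherwise, values were interpolated linearly from a five-concentration, 48-hour dose response in 96-well plates. GI50 = concentration required for 50% inhibition of growth.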 Active and inactive are the calls of the source. Cut-off read from the data, not from the text of the source: active = GI50 up to about 1.1 µM and inactive = higher.
# How the values were obtained:
# Assay in all cases: NCI tumour cell line growth inhibition, 48 h
# [1] = test system: 786-0
# [2] = test system: A498
# [3] = test system: A549
# [4] = test system: ACHN
# [5] = test system: BT-549
# [6] = test system: CCRF-CEM
# [7] = test system: COLO 205
# [8] = test system: DU-145
# [9] = test system: EKVX
# [10] = test system: HCC 2998
# [11] = test system: HCT-116
# [12] = test system: HCT-15
# [13] = test system: HL-60
# [14] = test system: HOP-62
# [15] = test system: HOP-92
# [16] = test system: HT-29
# [17] = test system: Hs-578T
# [18] = test system: IGROV-1
# [19] = test system: K562
# [20] = test system: KM12
# [21] = test system: LOX IMVI
# [22] = test system: M14
# [23] = test system: MCF7
# [24] = test system: MDA-MB-231
# [25] = test system: MDA-MB-435
# [26] = test system: MDA-N
# [27] = test system: MOLT-4
# [28] = test system: Malme-3M
# [29] = test system: NCI-H226
# [30] = test system: NCI-H23
# [31] = test system: NCI-H460
# [32] = test system: NCI-H522
# [33] = test system: NCI/ADR-RES
# [34] = test system: OVCAR-3
# [35] = test system: OVCAR-4
# [36] = test system: OVCAR-5
# [37] = test system: OVCAR-8
# [38] = test system: PC-3
# [39] = test system: RPMI-8226
# [40] = test system: RXF 393
# [41] = test system: SF-268
# [42] = test system: SF-295
# [43] = test system: SF-539
# [44] = test system: SK-MEL-28
# [45] = test system: SK-MEL-2
# [46] = test system: SK-MEL-5
# [47] = test system: SK-OV-3
# [48] = test system: SN12C
# [49] = test system: SNB-19
# [50] = test system: SNB-75
# [51] = test system: SR
# [52] = test system: SW-620
# [53] = test system: T47D
# [54] = test system: TK-10
# [55] = test system: U-251
# [56] = test system: UACC-257
# [57] = test system: UACC-62
# [58] = test system: UO-31
# [59] = test system: CAKI-1
structure (smiles),measurement,setting,value
N#CC12CC=C(c3ccccc3)N=C1NC(c1ccccc1)=CC2 (configuration not stated),GI50,[1],> 100 µM (inactive)
same,GI50,[2],23.2 µM (inactive)
same,GI50,[3],54 µM (inactive)
same,GI50,[4],57.4 µM (inactive)
same,GI50,[5],40.6 µM (inactive)
same,GI50,[6],32.2 µM (inactive)
same,GI50,[7],30.8 µM (inactive)
same,GI50,[8],57.5 µM (inactive)
same,GI50,[9],52.2 µM (inactive)
same,GI50,[10],> 100 µM (inactive)
same,GI50,[11],47 µM (inactive)
same,GI50,[12],69.7 µM
same,GI50,[13],22.4 µM (inactive)
same,GI50,[14],> 100 µM (inactive)
same,GI50,[15],16 µM (inactive)
same,GI50,[16],57.3 µM (inactive)
same,GI50,[17],> 100 µM (inactive)
same,GI50,[18],> 100 µM (inactive)
same,GI50,[19],31.6 µM (inactive)
same,GI50,[20],51.5 µM (inactive)
same,GI50,[21],30.8 µM (inactive)
same,GI50,[22],42.1 µM (inactive)
same,GI50,[23],50 µM (inactive)
same,GI50,[24],> 100 µM (inactive)
same,GI50,[25],35.6 µM (inactive)
same,GI50,[26],37.3 µM (inactive)
same,GI50,[27],21.8 µM (inactive)
same,GI50,[28],> 100 µM (inactive)
same,GI50,[29],60.8 µM (inactive)
same,GI50,[30],84.9 µM (inactive)
same,GI50,[31],57.5 µM (inactive)
same,GI50,[32],46.7 µM (inactive)
same,GI50,[33],53.5 µM (inactive)
same,GI50,[34],> 100 µM (inactive)
same,GI50,[35],29.7 µM (inactive)
same,GI50,[36],> 100 µM (inactive)
same,GI50,[37],48.2 µM (inactive)
same,GI50,[38],33.9 µM (inactive)
same,GI50,[39],28.8 µM (inactive)
same,GI50,[40],> 100 µM (inactive)
same,GI50,[41],> 100 µM (inactive)
same,GI50,[42],57.7 µM (inactive)
same,GI50,[43],> 100 µM (inactive)
same,GI50,[44],> 100 µM (inactive)
same,GI50,[45],56.4 µM (inactive)
same,GI50,[46],19 µM (inactive)
same,GI50,[47],> 100 µM (inactive)
same,GI50,[48],> 100 µM (inactive)
same,GI50,[49],90.8 µM (inactive)
same,GI50,[50],49 µM (inactive)
same,GI50,[51],29.9 µM (inactive)
same,GI50,[52],98.9 µM (inactive)
same,GI50,[53],34.7 µM (inactive)
same,GI50,[54],> 100 µM (inactive)
same,GI50,[55],85.1 µM (inactive)
same,GI50,[56],48.6 µM (inactive)
same,GI50,[57],86.7 µM (inactive)
same,GI50,[58],40.3 µM (inactive)
C=CC(OC(C)=O)c1ccc(OC(C)=O)cc1 (configuration not stated),GI50,[1],1.56 µM (inactive)
same,GI50,[2],12 µM (inactive)
same,GI50,[3],19.8 µM (inactive)
same,GI50,[4],2.54 µM (inactive)
same,GI50,[5],8.93 µM (inactive)
same,GI50,[59],4.88 µM (inactive)
same,GI50,[7],3.85 µM (inactive)
same,GI50,[8],10.4 µM (inactive)
same,GI50,[9],13.8 µM (inactive)
same,GI50,[10],7.01 µM (inactive)
same,GI50,[11],7.05 µM (inactive)
same,GI50,[12],8.24 µM
same,GI50,[13],3.79 µM (inactive)
same,GI50,[14],3.82 µM (inactive)
same,GI50,[15],8.47 µM (inactive)
same,GI50,[16],4.8 µM (inactive)
same,GI50,[17],2.37 µM (inactive)
same,GI50,[18],15.7 µM (inactive)
same,GI50,[19],20 µM (inactive)
same,GI50,[20],5.57 µM (inactive)
same,GI50,[21],2.88 µM (inactive)
same,GI50,[22],10.5 µM (inactive)
same,GI50,[23],11.4 µM (inactive)
same,GI50,[24],3.3 µM (inactive)
same,GI50,[25],3.45 µM (inactive)
same,GI50,[26],4.95 µM (inactive)
same,GI50,[27],3.31 µM (inactive)
same,GI50,[28],2.92 µM (inactive)
same,GI50,[29],15.7 µM (inactive)
same,GI50,[30],17 µM (inactive)
same,GI50,[31],17.1 µM (inactive)
same,GI50,[32],1.91 µM (inactive)
same,GI50,[33],7.01 µM (inactive)
same,GI50,[34],6.11 µM (inactive)
same,GI50,[35],17.2 µM (inactive)
same,GI50,[36],9.27 µM (inactive)
same,GI50,[37],3.94 µM (inactive)
same,GI50,[38],2.56 µM (inactive)
same,GI50,[39],2.25 µM (inactive)
same,GI50,[40],14 µM (inactive)
same,GI50,[41],4.92 µM (inactive)
same,GI50,[42],7.62 µM (inactive)
same,GI50,[43],2.08 µM (inactive)
same,GI50,[44],9.27 µM (inactive)
same,GI50,[45],4.97 µM (inactive)
same,GI50,[46],15 µM (inactive)
same,GI50,[47],17.5 µM (inactive)
same,GI50,[48],2.1 µM (inactive)
same,GI50,[49],13.9 µM (inactive)
same,GI50,[50],3.88 µM (inactive)
same,GI50,[51],2.69 µM (inactive)
same,GI50,[52],2.21 µM (inactive)
same,GI50,[53],2.72 µM (inactive)
same,GI50,[54],2.17 µM (inactive)
same,GI50,[55],2.3 µM (inactive)
same,GI50,[56],6.04 µM (inactive)
same,GI50,[57],14.8 µM (inactive)
same,GI50,[58],2.1 µM (inactive)
COc1ccc(-c2cc(-c3ccccc3)[nH]c(=S)c2C#N)cc1,GI50,[1],27.2 µM (inactive)
same,GI50,[2],15.3 µM (inactive)
same,GI50,[3],18.8 µM (inactive)
same,GI50,[4],33 µM (inactive)
same,GI50,[5],39.6 µM (inactive)
same,GI50,[59],61 µM (inactive)
same,GI50,[6],17.3 µM (inactive)
same,GI50,[7],> 10 µM (inactive)
same,GI50,[8],52.2 µM (inactive)
same,GI50,[9],55.8 µM (inactive)
same,GI50,[10],28.2 µM (inactive)
same,GI50,[11],34.9 µM (inactive)
same,GI50,[12],34.7 µM
same,GI50,[13],46.8 µM (inactive)
same,GI50,[14],3.85 µM (inactive)
same,GI50,[15],44.3 µM (inactive)
same,GI50,[16],36.1 µM (inactive)
same,GI50,[17],39.2 µM (inactive)
same,GI50,[18],26.4 µM (inactive)
same,GI50,[19],22.8 µM (inactive)
same,GI50,[20],45.4 µM (inactive)
same,GI50,[21],20.7 µM (inactive)
same,GI50,[22],25.4 µM (inactive)
same,GI50,[23],30.7 µM (inactive)
same,GI50,[24],32.4 µM (inactive)
same,GI50,[25],20.1 µM (inactive)
same,GI50,[26],31.1 µM (inactive)
same,GI50,[27],17.4 µM (inactive)
same,GI50,[28],32.4 µM (inactive)
same,GI50,[29],31.4 µM (inactive)
same,GI50,[30],21.8 µM (inactive)
same,GI50,[31],25.5 µM (inactive)
same,GI50,[32],25.5 µM (inactive)
same,GI50,[33],39.1 µM (inactive)
same,GI50,[34],11.9 µM (inactive)
same,GI50,[35],38.6 µM (inactive)
same,GI50,[36],62.1 µM (inactive)
same,GI50,[37],29.8 µM (inactive)
same,GI50,[38],19.9 µM (inactive)
same,GI50,[39],20.7 µM (inactive)
same,GI50,[40],39.8 µM (inactive)
same,GI50,[41],38.2 µM (inactive)
same,GI50,[42],27.4 µM (inactive)
same,GI50,[44],20 µM (inactive)
same,GI50,[46],16 µM (inactive)
same,GI50,[47],30.8 µM (inactive)
same,GI50,[48],41.2 µM (inactive)
same,GI50,[49],40.4 µM (inactive)
same,GI50,[50],31 µM (inactive)
same,GI50,[51],32.6 µM (inactive)
same,GI50,[52],33 µM (inactive)
same,GI50,[53],8.63 µM (inactive)
same,GI50,[54],76.7 µM (inactive)
same,GI50,[55],25.8 µM (inactive)
same,GI50,[57],19 µM (inactive)
same,GI50,[58],20.6 µM (inactive)
